Laboratory results taken from patent US5153352A, “Process for preparation of intermediates of carbocyclic nucleoside analogs” (priority 1990, dated 1992).

What was measured:
[1] = test system: Human Immunodeficiency Virus (HIV); assay: HIV CPE inhibition assay in ATH8 cells; format: cell-based
Procedure: (§1) The ATH8 human T-cell line expresses high levels of the CD4 surface antigen and is quite sensitive to the cytopathogenic effect (CPE) of HIV. The cells were propagated in RPMI 1640 medium supplemented with 4mM glutamine, 15% heat-inactivated fetal bovine serum (Biocell), antibiotics (50 units of penicillin and […] of streptomycin per ml), and 50 units of recombinant-derived human interleukin-2 (ala-125; AMGen Biologicals) per ml.
The clone H9 cell line is another CD4^+ human T-cell line which is permissive for HIV replication but largely resistant to virus induced CPE. H9 cells productively infected with the HTLV IIIB strain of HIV served as the source of infectious virus. These cells were propagated in RPMI 1640 medium supplemented with glutamine and antibiotics as described above, and with 20% heat-inactivated fetal bovine serum. Freshly harvested, undiluted culture supernatant from the H9/HTLV-IIIB producer cells was used for infectious virus inoculum.
The screening of compounds for antiviral activity was performed using a modification of the CPE inhibition assay originally developed by Broder and co workers. This assay is based on the ability of uninfected ATH8 cells to grow and form a pellet at the bottom of a culture tube. Starting about 4 days after HIV addition, infected ATH8 cells begin to die and the pellet starts to break up. By day 10 a clear differential is observable in the size of the cell pellet in uninfected control wells versus infected control wells. The protective effect of test compounds can be assessed by adding them at varying concentrations to the cultured cells at the time of virus infection, then monitoring the status of the cell pellet.
(§2) ATH8 cells were used as the primary target in the HIV induced CPE inhibition assay. Cells were treated with polybrene (2 ug/ml in growth medium) for 30 minutes at 37° C., then collected by gentle centrifugation (40×g for 15 minutes at room temperature) and resuspended in clarified (8000×g for 15 minutes at 4° C.) supernate freshly harvested from 48 hours post passage H9/HTL IIIB cells. Following a 60-minute adsorption period at 37° C., the cells were dispensed into the U-bottom wells of 96-well trays (1×10^4 cells in 0.1 ml per well). An equal volume (0.1 ml) of supplemented RPMI 1640 medium containing test compound and twice the normal concentration of interleukin-2 was then added to each well. Test compounds were evaluated at seven half-log dilutions ranging from 100 uq/ml to 0.1 uq/ml. […]
(§3) Between 7 and 10 days post infection, all wells were visually monitored for the degree of CPE inhibition as reflected by cell pellet size, and aliquots were taken from selected wells for determination of cell number and viability (based on trypan blue dye exclusion).

[2] = compound cytotoxicity in ATH8 cells (HIV CPE inhibition assay); format: cell-based; conditions: human, read-out: MTC
Procedure: as §1
as §2, with “An equal volume (0.1 ml) of supplemented RPMI 1640 medium containing test compound and twice the normal concentration of interleukin-2 was then added to each well.” left out
as §3

SMILES: OCC1CC(n2cnc3c(Cl)ncnc32)C1CO (centres unmarked) [Example 4B, 3-(6'-chloro-9'H-purin-9'-yl)-1,2-bis(hydroxymethyl)cyclobutane]
- VR [1]: 1.1
- MCC [2]: 10 µg/mL
